How the values were obtained:
[1] = test system: E. faecalis; assay: MIC by NCCLS broth microdilution, E. faecalis; format: cell-based; settings: Mueller-Hinton Broth with 50 mg/L Ca2+, 37° C.
Procedure: (§1) Compounds were dissolved in 100% dimethyl sulfoxide and were diluted to the final reaction concentration (0.1 μg/mL-100 μg/mL) in microbial growth media. In all cases the final concentration of dimethyl sulfoxide incubated with cells is less than or equal to 1%. […] The optical densities (OD) of the bacterial cells, which measures bacterial cell growth and proliferation, were measured using a commercial plate reader. The MIC value is defined as the lowest compound concentration inhibiting growth of the test organism.

[2] = test system: S. aureus; assay: MIC by NCCLS broth microdilution, S. aureus; format: cell-based; settings: Mueller-Hinton Broth with 50 mg/L Ca2+, 37° C.
Procedure: as §1

With “Boc-protected daptomycin α,β-tridecenoyl amide [Compound 110]” the “MIC (μg/ml) E. faecalis” value [1] was “++ (an MIC (μg/ml) or an ED50 (mg/kg) of more than 1 μg/ml or 1 mg/kg, respectively, but less than or equal to 10 μg/ml or 10 mg/kg, respectively)” and the “MIC (μg/ml) S. aureus” value [2] was “+++ (the compound has an MIC (μg/ml) of 1 μg/ml or less)”.

— US7335725B2, “Lipopeptides as antibacterial agents” (priority 1999, dated 2008)
